Experimental data: patent US7741283B2, “Compositions and methods for inhibiting cell proliferation” (St. Louis University, priority 2003, dated 2010)
Entries after “also recorded” stand apart in the source; their conditions may differ. One block for each compound: values may come before it.

Columns and labels:
Mv1Lu cells [1] = test: [methyl-3H] thymidine incorporation (DNA synthesis), Mv1Lu cells; format: cell-based, mink; settings: Mv1Lu
PEA-C11 cells [2] = test: [methyl-3H] thymidine incorporation, PEA-C11 cells; format: cell-based, mink; settings: TGF-β1 20 pM
Mv1Lu cells [3] = test: Cell growth (cell number), Mv1Lu cells; format: cell-based, mink; settings: TGF-β1 20 pM, 4-day
Description: (§1) FIG. 6 depicts the effects of IGFBP-3 and TGF-β1 on DNA synthesis (A), cell growth (B) and PAI-1 expression (C) in Mv1Lu and PEA-C11 cells. (A,B) Cells were incubated with various concentrations of IGFBP-3 (a) or TGF-β1 (b) as indicated. DNA synthesis and cell growth were determined by measuring the [methyl-^3H] thymidine incorporation into cellular DNA after 18 hr incubation (A) and by counting cell number after a 4-day incubation (B), respectively. The [methyl-^3H] thymidine incorporation in cells treated without IGFBP-3 and TGF-β1 (29,170±1,657 and 59,947±7,692 cpm/well for Mv1Lu and PEA-C11 cells, respectively) were taken as 0% inhibition. […] Each data point is the mean±S.D. of quadruplicate determinations. […] Data are representative of eight similar experiments. (C) Cells were incubated with various concentrations of TGF-β1 as indicated. After 2 hr at 37° C., the PAI-1 expression was determined by Northern blot analysis. The expression of glyceraldehyde-3-phosphate dehydrogenase (G3PDH) was used as control. The relative levels of the transcripts were quantified by a Phospholmager. Data are representative of four similar experiments.
(§2) Cells were plated at a density of 1-2×10^4 cells/dish in DMEM containing 1% fetal calf serum. The cell number was counted every day or after a 3-day incubation using a hematocytometer. The assays were performed in quadruplicate.

PEA-C11 cells [4] = test: Cell growth (cell number), PEA-C11 cells; format: cell-based, mink; settings: TGF-β1 20 pM, PEA-C11, 4-day
Description: as §1, §2

MEF cells [5] = test: [methyl-3H] thymidine incorporation, MEF cells; format: cell-based, mouse; settings: TGF-β1 20 pM
Description: (§3) FIG. 7 depicts the effect of TGF-β1 on DNA synthesis (A), cell growth (B) and PAI-1 expression (C) in MEF and PEA-13 cells. (A) Cells were treated with various concentrations of TGF-β1 as indicated. DNA synthesis was determined by measuring [methyl-^3H] thymidine incorporation into cellular DNA. The [methyl-^3H] thymidine incorporation in cells treated without TGF-β1 (100,861±3,720 and 103,262±6,722 cpm/well for MEF and PEA-13 cells, respectively) was taken as 0% inhibition. The negative values of inhibition indicate mitogenic activity. […] Each datapoint is the mean±S.D. of quadruplicate determinations. […] Data are representative of six similar experiments. (B) Cells were treated with various concentrations of TGF-β1 as indicated. The cell number was counted after a 4 day incubation. […] The negative values of the inhibition indicate the growth stimulatory activity. Each datapoint is the mean±S.D. of quadruplicate determinations. […] Data are representative of four similar experiments. (C) Cells were treated with various concentrations of TGF-β1 as indicated. The PAI-1 expression in these cells was determined by Northern blot analysis. The expression of G3PDH was used as control. The relative levels of the transcripts were quantified by a PhosphoImager. Data are representative of four similar experiments. […]

PEA-13 cells [6] = test: [methyl-3H] thymidine incorporation, PEA-13 cells; format: cell-based, mouse; settings: TGF-β1 20 pM
Description: as §3

MEF cells [7] = test: Cell growth (cell number), MEF cells; format: cell-based, mouse; settings: TGF-β1 20 pM
Description: as §3, with “The expression of G3PDH was used as control.” left out, “PhosphoImager.” for “PhosphoImager. Data are representative of four similar experiments.”
(§4) Cells were plated at a density of 1-2×10^4 cells/dish in DMEM containing 1% fetal calf serum. The cell number was counted every day or after a 3-day incubation using a hematocytometer. […]

PEA-13 cells [8] = test: Cell growth (cell number), PEA-13 cells; format: cell-based, mouse; settings: TGF-β1 20 pM
Description: as §3, with “The expression of G3PDH was used as control.” left out, “PhosphoImager.” for “PhosphoImager. Data are representative of four similar experiments.”
as §4

H1299/LRP cells [9] = test: [methyl-3H] thymidine incorporation, H1299/LRP cells; format: cell-based, human; settings: various concentrations
H1299/vector cells [10] = test: [methyl-3H] thymidine incorporation, H1299/vector cells; format: cell-based, human; settings: various concentrations
H1299/LRP cells [11] = test: Cell growth (cell number), H1299/LRP cells; format: cell-based, human; settings: TGF-β1 20 pM or IGFBP-3 1 μg/ml, 3-day
H1299/vector cells [12] = test: Cell growth (cell number), H1299/vector cells; format: cell-based, human; settings: TGF-β1 20 pM or IGFBP-3 1 μg/ml, 3-day
IRS-2 [13] = test: 32P metabolic labeling and immunoprecipitation of IRS-2, Mv1Lu cells; format: cell-based, mink; settings: Mv1Lu; IGFBPs 1 μg/ml; TGF-β1 20 pM
IRS-2 [14] = test: 32P metabolic labeling and immunoprecipitation of IRS-2, DR26 cells; format: cell-based, mink
[15] = tested on: 32D cells expressing vector only; test: [methyl-3H] thymidine incorporation, 32D cells transfected with vector only; format: cell-based, murine
32D/IRS-1 cells = test: [methyl-3H] thymidine incorporation, 32D/IRS-1 cells; format: cell-based, murine; settings: 32D cells expressing IRS-1
32D/IR/IRS-2 cells = test: [methyl-3H] thymidine incorporation, 32D/IR/IRS-2 cells; format: cell-based, murine; settings: 32D cells expressing IRS-2 and insulin receptor
acidic pH binding sites [16] = target: acidic pH binding sites (Neogale vison, UniProt A0A8C7BSJ2); test: Specific binding of 125I-ligands to Mv1Lu cells at acidic pH; parameters: species or system mink; settings: Mv1Lu cells; for pH of optimal/maximal binding: EGTA/BAPTA- or GST-RAP-sensitive binding, 0° C.
Sequence of acidic pH binding sites (Neogale vison, UniProt A0A8C7BSJ2) (A0A8C7BSJ2 entry or part of it): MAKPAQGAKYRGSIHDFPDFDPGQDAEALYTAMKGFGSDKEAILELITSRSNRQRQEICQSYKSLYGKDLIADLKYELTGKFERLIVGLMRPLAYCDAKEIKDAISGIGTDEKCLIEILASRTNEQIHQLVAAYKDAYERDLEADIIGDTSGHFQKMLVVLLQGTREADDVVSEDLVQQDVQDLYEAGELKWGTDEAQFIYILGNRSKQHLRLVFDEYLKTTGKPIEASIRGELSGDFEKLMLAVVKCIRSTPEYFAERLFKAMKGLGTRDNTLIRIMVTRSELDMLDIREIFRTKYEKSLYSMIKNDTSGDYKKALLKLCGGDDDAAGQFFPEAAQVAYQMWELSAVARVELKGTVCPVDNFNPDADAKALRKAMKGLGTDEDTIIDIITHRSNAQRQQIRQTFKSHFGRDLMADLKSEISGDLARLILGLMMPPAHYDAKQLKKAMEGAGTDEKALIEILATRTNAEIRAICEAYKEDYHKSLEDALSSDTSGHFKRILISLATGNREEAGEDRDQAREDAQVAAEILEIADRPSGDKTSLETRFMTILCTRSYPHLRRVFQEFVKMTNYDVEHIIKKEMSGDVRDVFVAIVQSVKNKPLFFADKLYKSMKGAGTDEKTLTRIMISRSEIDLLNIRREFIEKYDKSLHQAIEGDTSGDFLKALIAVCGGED

acidic pH binding sites [17] = target: T1, acidic pH binding sites (Mus musculus, UniProt P14824); test: Specific binding of 125I-ligands to MEF cells at acidic pH; settings: MEF cells
T1 sequence (P14824 2-673): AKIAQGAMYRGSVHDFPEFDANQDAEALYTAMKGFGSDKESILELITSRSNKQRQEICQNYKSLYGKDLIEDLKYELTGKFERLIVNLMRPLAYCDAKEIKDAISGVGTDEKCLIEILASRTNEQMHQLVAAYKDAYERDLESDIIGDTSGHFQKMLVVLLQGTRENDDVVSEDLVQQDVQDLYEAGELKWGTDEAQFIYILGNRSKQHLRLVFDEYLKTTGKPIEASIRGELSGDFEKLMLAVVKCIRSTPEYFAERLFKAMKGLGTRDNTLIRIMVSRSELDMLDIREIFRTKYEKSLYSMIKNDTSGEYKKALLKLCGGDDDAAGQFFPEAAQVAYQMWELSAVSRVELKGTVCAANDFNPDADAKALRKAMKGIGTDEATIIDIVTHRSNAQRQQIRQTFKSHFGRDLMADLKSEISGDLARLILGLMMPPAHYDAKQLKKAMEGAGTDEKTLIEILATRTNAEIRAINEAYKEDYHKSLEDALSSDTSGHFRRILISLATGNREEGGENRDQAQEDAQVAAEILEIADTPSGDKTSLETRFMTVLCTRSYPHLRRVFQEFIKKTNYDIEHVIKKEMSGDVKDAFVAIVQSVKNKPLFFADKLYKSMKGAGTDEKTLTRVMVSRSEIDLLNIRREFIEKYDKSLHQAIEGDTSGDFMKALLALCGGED

LRP-1/TβR-V = LRP-1/TβR-V (Homo sapiens, UniProt Q07954); settings: pH 7.4; read-out: Kd for (high affinity) binding to LRP-1/TβR-V; cited from earlier work
Sequence of LRP-1/TβR-V (Q07954 20-4544): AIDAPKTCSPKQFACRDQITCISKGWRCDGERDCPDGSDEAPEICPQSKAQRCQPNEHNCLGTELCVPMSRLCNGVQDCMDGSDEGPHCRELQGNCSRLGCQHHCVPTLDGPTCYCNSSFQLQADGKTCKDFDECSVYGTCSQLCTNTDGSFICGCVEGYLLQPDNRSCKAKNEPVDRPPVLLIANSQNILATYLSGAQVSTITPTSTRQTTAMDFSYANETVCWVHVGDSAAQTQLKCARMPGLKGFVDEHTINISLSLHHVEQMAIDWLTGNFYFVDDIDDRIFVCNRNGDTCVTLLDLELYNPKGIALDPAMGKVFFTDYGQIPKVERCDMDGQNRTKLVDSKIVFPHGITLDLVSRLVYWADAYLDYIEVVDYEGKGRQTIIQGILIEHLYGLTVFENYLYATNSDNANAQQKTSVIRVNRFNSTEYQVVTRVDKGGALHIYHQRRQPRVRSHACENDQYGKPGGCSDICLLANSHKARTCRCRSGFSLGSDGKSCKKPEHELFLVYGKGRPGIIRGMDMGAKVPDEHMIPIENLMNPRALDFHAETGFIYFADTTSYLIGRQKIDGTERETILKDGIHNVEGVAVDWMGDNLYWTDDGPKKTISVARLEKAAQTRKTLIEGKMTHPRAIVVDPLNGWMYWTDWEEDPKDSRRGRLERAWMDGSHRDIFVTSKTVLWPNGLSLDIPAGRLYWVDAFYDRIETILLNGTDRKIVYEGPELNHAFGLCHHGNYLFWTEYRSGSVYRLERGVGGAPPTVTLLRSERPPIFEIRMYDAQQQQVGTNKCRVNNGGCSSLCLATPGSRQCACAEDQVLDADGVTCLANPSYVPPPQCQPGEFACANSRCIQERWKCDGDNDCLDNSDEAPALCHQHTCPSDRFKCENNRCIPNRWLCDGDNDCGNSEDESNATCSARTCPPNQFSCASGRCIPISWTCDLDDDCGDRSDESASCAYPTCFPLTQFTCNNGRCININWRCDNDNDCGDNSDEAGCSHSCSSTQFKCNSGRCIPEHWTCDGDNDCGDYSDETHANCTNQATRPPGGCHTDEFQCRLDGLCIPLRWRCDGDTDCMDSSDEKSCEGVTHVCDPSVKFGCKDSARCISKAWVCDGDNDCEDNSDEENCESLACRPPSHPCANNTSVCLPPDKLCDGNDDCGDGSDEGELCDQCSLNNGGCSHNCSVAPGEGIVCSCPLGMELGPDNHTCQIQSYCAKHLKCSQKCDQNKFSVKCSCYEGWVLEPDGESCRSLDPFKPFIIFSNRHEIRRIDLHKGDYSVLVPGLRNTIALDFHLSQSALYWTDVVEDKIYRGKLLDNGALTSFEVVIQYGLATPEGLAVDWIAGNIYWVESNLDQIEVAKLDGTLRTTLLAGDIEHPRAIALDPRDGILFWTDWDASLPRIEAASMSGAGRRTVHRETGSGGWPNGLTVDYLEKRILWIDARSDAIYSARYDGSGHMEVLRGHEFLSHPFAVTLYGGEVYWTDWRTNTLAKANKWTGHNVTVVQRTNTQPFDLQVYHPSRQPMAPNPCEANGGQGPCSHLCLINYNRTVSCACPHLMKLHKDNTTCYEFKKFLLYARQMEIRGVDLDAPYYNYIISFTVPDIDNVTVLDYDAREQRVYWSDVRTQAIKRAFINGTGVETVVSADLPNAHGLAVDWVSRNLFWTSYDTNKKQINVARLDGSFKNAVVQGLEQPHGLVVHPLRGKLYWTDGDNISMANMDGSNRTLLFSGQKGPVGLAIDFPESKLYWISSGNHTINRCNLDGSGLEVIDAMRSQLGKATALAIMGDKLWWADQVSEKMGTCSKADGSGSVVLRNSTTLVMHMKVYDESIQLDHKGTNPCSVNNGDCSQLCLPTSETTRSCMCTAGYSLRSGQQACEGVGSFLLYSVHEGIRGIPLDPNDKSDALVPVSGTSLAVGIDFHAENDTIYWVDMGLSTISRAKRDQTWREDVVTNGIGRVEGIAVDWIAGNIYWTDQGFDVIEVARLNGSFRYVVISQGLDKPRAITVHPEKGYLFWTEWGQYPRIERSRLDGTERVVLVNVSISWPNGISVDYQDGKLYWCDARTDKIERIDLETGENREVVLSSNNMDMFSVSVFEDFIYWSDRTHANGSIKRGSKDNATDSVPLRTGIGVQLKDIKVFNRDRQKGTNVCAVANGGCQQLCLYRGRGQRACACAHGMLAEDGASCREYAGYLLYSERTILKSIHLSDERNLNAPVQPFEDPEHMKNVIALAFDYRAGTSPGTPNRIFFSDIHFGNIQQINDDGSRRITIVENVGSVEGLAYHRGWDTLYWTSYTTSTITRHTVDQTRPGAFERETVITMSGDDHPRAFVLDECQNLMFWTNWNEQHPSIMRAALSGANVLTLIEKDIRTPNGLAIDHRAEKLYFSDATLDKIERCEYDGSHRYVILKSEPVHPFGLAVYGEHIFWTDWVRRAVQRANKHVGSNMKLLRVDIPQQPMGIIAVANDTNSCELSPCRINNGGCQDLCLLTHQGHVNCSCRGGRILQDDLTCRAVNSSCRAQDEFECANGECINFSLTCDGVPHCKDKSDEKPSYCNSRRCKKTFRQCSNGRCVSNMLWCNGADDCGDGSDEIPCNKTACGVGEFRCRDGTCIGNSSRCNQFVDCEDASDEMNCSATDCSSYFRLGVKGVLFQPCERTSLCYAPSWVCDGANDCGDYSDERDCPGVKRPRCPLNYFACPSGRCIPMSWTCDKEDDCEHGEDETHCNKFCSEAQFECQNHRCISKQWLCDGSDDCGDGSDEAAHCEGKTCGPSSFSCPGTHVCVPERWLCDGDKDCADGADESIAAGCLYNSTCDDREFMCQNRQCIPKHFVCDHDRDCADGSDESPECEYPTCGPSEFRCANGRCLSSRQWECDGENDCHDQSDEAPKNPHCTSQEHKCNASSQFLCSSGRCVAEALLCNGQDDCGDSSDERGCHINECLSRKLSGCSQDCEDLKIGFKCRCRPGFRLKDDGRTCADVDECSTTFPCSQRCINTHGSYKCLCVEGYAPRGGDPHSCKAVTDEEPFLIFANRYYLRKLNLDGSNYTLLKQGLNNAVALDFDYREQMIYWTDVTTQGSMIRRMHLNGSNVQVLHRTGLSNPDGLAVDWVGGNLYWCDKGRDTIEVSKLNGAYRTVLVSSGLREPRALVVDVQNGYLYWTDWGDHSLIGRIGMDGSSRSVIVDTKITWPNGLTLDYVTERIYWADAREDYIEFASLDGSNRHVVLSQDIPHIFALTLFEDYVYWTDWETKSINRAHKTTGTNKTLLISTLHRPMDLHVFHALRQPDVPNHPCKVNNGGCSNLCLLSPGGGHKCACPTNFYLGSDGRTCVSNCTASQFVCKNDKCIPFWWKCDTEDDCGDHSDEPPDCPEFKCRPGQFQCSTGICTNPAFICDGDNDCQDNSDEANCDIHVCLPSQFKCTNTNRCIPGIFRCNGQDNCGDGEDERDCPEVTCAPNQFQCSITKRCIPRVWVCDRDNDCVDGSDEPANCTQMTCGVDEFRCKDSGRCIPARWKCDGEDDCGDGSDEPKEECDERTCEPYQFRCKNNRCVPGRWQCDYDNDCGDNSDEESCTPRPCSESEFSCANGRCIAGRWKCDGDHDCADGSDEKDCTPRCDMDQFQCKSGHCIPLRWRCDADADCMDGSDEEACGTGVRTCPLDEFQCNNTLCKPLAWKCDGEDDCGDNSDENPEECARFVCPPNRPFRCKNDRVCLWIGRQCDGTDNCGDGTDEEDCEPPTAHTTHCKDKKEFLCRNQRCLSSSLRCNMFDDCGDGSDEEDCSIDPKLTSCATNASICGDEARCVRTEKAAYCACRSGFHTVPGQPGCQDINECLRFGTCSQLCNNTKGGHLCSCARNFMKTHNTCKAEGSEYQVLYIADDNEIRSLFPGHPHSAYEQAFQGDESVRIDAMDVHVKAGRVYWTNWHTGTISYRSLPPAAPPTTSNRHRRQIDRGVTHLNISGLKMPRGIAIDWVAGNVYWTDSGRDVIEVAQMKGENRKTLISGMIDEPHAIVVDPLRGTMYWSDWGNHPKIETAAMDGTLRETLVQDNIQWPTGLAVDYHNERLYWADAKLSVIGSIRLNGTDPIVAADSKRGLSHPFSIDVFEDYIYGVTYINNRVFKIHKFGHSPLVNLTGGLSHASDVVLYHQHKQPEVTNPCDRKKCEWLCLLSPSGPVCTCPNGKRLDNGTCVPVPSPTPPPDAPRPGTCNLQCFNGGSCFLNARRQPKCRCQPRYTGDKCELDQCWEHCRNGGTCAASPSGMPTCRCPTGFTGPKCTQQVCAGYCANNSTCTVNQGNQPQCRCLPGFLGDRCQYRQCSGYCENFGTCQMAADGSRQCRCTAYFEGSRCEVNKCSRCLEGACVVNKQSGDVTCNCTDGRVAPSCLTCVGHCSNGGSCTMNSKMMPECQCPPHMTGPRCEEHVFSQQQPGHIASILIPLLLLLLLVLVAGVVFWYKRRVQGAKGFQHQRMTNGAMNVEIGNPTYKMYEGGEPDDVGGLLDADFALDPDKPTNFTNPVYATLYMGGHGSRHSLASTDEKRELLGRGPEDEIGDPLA

acidic pH binding sites [18] = target: T1, acidic pH binding sites; test: Specific binding of 125I-ligands to PEA-13 cells at acidic pH; parameters: endogenous in cells; host or cells: PEA-13 (LRP-1-deficient mouse embryonic fibroblasts); settings: PEA-13 cells
[19] = tested on: TβR-V purified from bovine liver plasma membranes; test: 125I-IGFBP-3 / 125I-TGF-β1 affinity labeling of purified TβR-V; format: binding; settings: DSS, β1^25(41-65) 20 μM, RAP 10-40 μg/ml, α2M* 100 nM, lactoferrin 100 nM
MEF cells [20] = test: Internalization and degradation of cell surface-bound 125I-ligand, MEF cells; format: cell-based, mouse; settings: for Cell surface-bound ligand internalized and degraded: MEF
PEA-13 cells [21] = test: Internalization and degradation of cell surface-bound 125I-α2M*, PEA-13 cells; format: cell-based, mouse; settings: PEA-13, pH 6.0, 1 hr at 37° C.
LRP-1 = target: T2, LRP-1 (Mus musculus, UniProt Q91ZX7); test: 125I-α2M* binding to MEF cells at pH 7.4; settings: pH 7.4; read-out: IC50, inhibition of ^125I-α2M* binding to LRP-1
T2 construct: endogenous in cells; host or cells: MEF (mouse embryonic fibroblasts)

Mv1Lu cells [22] = test: Internalization and degradation of cell surface-bound 125I-TGF-β1 or 125I-α2M*, Mv1Lu cells; format: cell-based, mink; settings: 10 μM, pH 7.4, 1 hr at 37° C.
Description: After 1 hr at 37° C., the medium was collected and precipitated with 10% trichloroacetic acid (TCA). The TCA-soluble radioactive material in the medium represented the cellular degradation products of 125I-TGF-β1 or 125I-α2M*. The cells were then treated with trypsin (5 mg/ml), maintained for 20 min at 0° C. and centrifuged. The radioactivity in the supernate and cell pellets represented cell surface-bound and internalized 125I-TGF-β1 or 125I-α2M*, respectively. The experiments were performed in quadruplicate.
After 2.5 hr, cells were washed, then warmed to 37° C.

[23] = tested on: cell surface α2M* receptors; settings: 30 μM, reversible; cited from earlier work

pH of optimal/maximal binding (acidic pH binding sites [16]): 5
pH of maximal binding (acidic pH binding sites [17]): 5
pH of maximal binding (acidic pH binding sites [18]): 5
Compound: TGF-β1: human transforming growth factor-β1
Inhibition of DNA synthesis (Mv1Lu cells [1]; TGF-β1 0.5 pM): ~75%
Inhibition of DNA synthesis (Mv1Lu cells [1]; TGF-β1 20 pM): 90-100%
Inhibition of DNA synthesis (PEA-C11 cells [2]): ~70%
Inhibition of cell growth (Mv1Lu cells [3]): 90-100%
Inhibition of cell growth (PEA-C11 cells [4]): ~70%
Inhibition of DNA synthesis (MEF cells [5]): 30-40%
Stimulation of DNA synthesis (PEA-13 cells [6]): ≤ 20%
Inhibition of cell growth (MEF cells [7]): 30-40%
Stimulation of cell growth (PEA-13 cells [8]): ≤ 20%
Effect on DNA synthesis (H1299/LRP cells [9]): inhibited
Effect on DNA synthesis (H1299/vector cells [10]): acted as mitogens or growth stimulators
Effect on cell growth (H1299/LRP cells [11]): inhibited
Effect on cell growth (H1299/vector cells [12]): acted as mitogens or growth stimulators
Induction of specific dephosphorylation (mobility change) of 32P-labeled IRS-2 (IRS-2 [13]): inability
32P-labeled phosphorylation of IRS-2 (IRS-2 [14]; TGF-β1 alone): capable of stimulating
Dephosphorylation of IRS-2 (IRS-2 [14]; TGF-β1 up to 400 pM): did not induce dephosphorylation
Inhibition of DNA synthesis [15]: minimally or not at all
Growth inhibitory response (DNA synthesis) (32D/IRS-1 cells): potent growth inhibitory response
Growth inhibitory response (DNA synthesis) (32D/IR/IRS-2 cells): potent growth inhibitory response
Kd (LRP-1/TβR-V): 0.05 to 0.4 nM

Compound: α2M*: α2M activated by methylamine
^125I-TGF-β1 binding to purified TβR-V ([19]; 0.1 nM 125I-TGF-β1, […] 0° C.): blocked
^125I-IGFBP-3 binding to purified TβR-V ([19]; 10 nM 125I-IGFBP-3, […] 0° C.): did not inhibit
Number of binding sites (Scatchard plot) (acidic pH binding sites [16]; pH 5): ~1×10^6 sites/cell
Saturating concentration of binding (acidic pH binding sites [16]; pH 5): ~120 nM
Kd (acidic pH binding sites [16]; pH 5, read-out: Apparent Kd (Scatchard plot)): ~51 nM
pH of optimal/maximal binding (acidic pH binding sites [16]): 5
pH of maximal binding (acidic pH binding sites [17]): 5
Cell surface-bound ligand internalized and degraded (MEF cells [20]; pH 6.0, 1 hr at 37° C.): ~70%
Cell surface-bound ligand internalized and degraded (MEF cells [20]; pH 7.4, 1 hr): more than 90%
Cell surface-bound ligand internalized and degraded (PEA-13 cells [21]): ~70%
Kd (LRP-1/TβR-V): ~0.075 nM
pH of maximal binding (acidic pH binding sites [18]): 5
IC50 (acidic pH binding sites [18]; acidic pH, read-out: IC50, inhibition of ^125I-α2M* binding): ~120 nM

Inhibition of ^125I-α2M* binding to cells (acidic pH binding sites [17]; pH 5.5, verapamil and W-5 at 100 μM): most potent inhibitors
IC50 (LRP-1): 25000 to 30000 nM
Compound: CN1CCN(CCCN2c3ccccc3Sc3ccc(C(F)(F)F)cc32)CC1 [trifluoperazine, reference compound]
Degradation of cell surface-bound ^125I-TGF-β1 or ^125I-α2M* (Mv1Lu cells [22]): completely blocked; also recorded: completely inhibits
Degradation of cell surface-bound ^125I-α2M* or ^125I-TGF-β1 (MEF cells [20]; MEF cells, pH 7.4): trifluoperazine-inhibitable degradation
Depletion of cell surface α2M* receptors [23]: ~50%
